Laboratory results taken from patent US9738591B2, “Antimicrobial compounds” (priority 2009, dated 2017).
≈ marks a conversion by molar mass, not a printed value. Where “and” joins values, the source holds several entries; their conditions need not be identical. Identical values can stand only once. Like-named read-outs stand apart in the source and are kept apart here.

What was measured:
[1] = tested on: Yersinia enterocolitica ATCC 9610; test: Disk diffusion; type: cell-based; conditions: 10 mg/ml, 20 μl
[2] = tested on: Staphylococcus xylosus ATCC 29971; test: Disk diffusion; conditions: 10 mg/ml, 20 μl
[3] = tested on: Vibrio cholerae (non-toxigenic) M3695; test: Disk diffusion; type: cell-based; conditions: 10 mg/ml, 20 μl, (other strain?)
[4] = tested on: S. epidermidis ATCC 12228; test: MIC and MBC by broth microdilution; type: cell-based; conditions: Staphylococcus epidermidis, ATCC12228, CA-MHB, two independent replicates
[5] = tested on: Clostridium perfringens ATCC 2734; type: cell-based; conditions: 10 mg/ml, 20 μl, BA - prereduced, anaerobe
[6] = Storage stability of master stock solution; type: physicochemical; conditions: 10 mg/ml in 100% DMSO, foil-covered glass bottles, −20° C.; results not shown
Method: (§1) 10 mg/ml stock solution of TSB007 was prepared in 100% DMSO. Master stock solutions of TSB007 (10 mg/ml) were made by dissolving 20 mg dehydrated compound in 2 ml 100% DMSO. They were stored in foil-covered glass bottles at −20° C. Master stocks stored in this way retained full antimicrobial activity for a minimum period of 6 weeks (results not shown).

[7] = tested on: Proteus mirabilis NCTC 10975; test: Disk diffusion; conditions: 10 mg/ml, 20 μl; repeat; value printed with '?'
[8] = tested on: sheep erythrocytes; test: Haemolysis of sheep erythrocytes; type: cell-based; conditions: for Average (SD) % haemolysis (n = 2): 2% sheep erythrocytes, 37° C., 2 h
Method: As an indicator of toxicity to human cells, haemolysis experiments on sheep erythrocytes were undertaken with TSB007.
as §1
Serial, 10-fold dilutions were performed in PBS to make solutions of 1000, 100, 10 and 1 mg/L of TSB007. In microcentrifuge tubes, 500 μl of each dilution was combined with 480 μl PBS and 20 μl washed sheep erythrocytes (100%) so that the final concentration of erythrocytes was 2% and the final concentrations of compound were 500, 50, 5 and 0.5 mg/L. Dilutions of DMSO without. TSB007 were prepared and tested as above to check for haemolysis due to DMSO. A 100% haemolysis control was prepared with 980 μl water and 20 μl erythrocyte suspension. A negative control was prepared with 980 μl PBS and 20 μl erythrocyte suspension. Dilutions and controls were prepared and tested in duplicate.
Tubes were incubated at 37° C. for 2 h on a rocker then centrifuged at 12 000 g for 5 mins. The OD540 of the supernatant was determined using 100 μl volumes transferred to a microtitre tray. % haemolysis was determined by blanking the OD against that of the negative control and presenting the resulting OD as a proportion of the OD of the positive control (blanked with water).

[9] = tested on: Moraxella catarrhalis ATCC 25238; test: Disk diffusion; type: cell-based; conditions: 10 mg/ml, 20 μl, incubated in 5% CO2
[10] = tested on: Staphylococcus aureus NCTC 6571/ATCC 9144; test: Disk diffusion; conditions: for zone of inhibition at 10000 µg/mL: Staphylococcus aureus
[11] = tested on: Bacillus cereus ATCC 13061; test: Disk diffusion; conditions: 10 mg/ml, 20 μl
[12] = tested on: Shigella flexneri NCTC 8192; test: Disk diffusion; type: cell-based; conditions: 10 mg/ml, 20 μl; repeat
Method: (§2) Plates were incubated at 35° C.

[13] = tested on: Clostridium difficile NCTC 43593; test: Disk diffusion; type: cell-based; conditions: 10 mg/ml, 20 μl, BA - prereduced, anaerobe
Method: as §2

[14] = tested on: Streptococcus pyogenes NCTC 8191; test: Disk diffusion; conditions: 10 mg/ml, 20 μl
[15] = tested on: S. typhimurium TA98, TA100 and TA1535; test: Ames Test for mutagenic activity, no metabolic activation; conditions: for Number of colonies: duplicate plates

O=C(O)c1ccc(/C=C/c2cc(/C=C/c3ccc(C(=O)O)cc3)cc(/C=C/c3ccc(C(=O)O)cc3)c2)cc1 [TSB007]
Zone diameters, 24 h TSB007 [1]: 7 trim | Zone diameters, 24 h TSB007 ([2]; 24 h): 17 trim | Zone diameters, Repeat Results ([2]; repeat): 18 trim | Zone diameters, Repeat Results [3]: 7 trim | MIC ([4]; 35° C., 24 h): 2 to 4 µg/mL (≈ 3.87 to 7.74 µM) | MBC [4]: > 32 µg/mL | Zone diameters, 24 h TSB007 ([5]; 24 h): 12 trim | Zone diameters, 48 h TSB007 ([5]; 48 h): 12 trim | minimum period for which master stocks retained full antimicrobial activity [6]: ≥ 6 weeks | Zone diameters, Repeat Results [7]: 9? trim | Average (SD) % haemolysis (n = 2) ([8]; 0.5 mg/L): −2.316 (0.695) % | Average (SD) % haemolysis (n = 2) ([8]; 5 mg/L): 2.175 (0.099) % | Average (SD) % haemolysis (n = 2) ([8]; 50 mg/L): 2.316 (0.099) % | haemolytic activity ([8]; 0.5-500 mg/L): very low | Average (SD) % haemolysis (n = 2) ([8]; 500 mg/L): 5.053 (0.595) % | Zone diameters, 24 h TSB007 ([9]; 24 h): 25 trim | Zone diameters, 48 h TSB007 ([9]; 48 h): 25 trim | Zone diameters, 24 h TSB007 ([10]; 10 mg/ml, 20 μl, 24 h): 20 trim | Zone diameters, 48 h TSB007 ([10]; 10 mg/ml, 20 μl, 48 h): 9 trim | Zone diameters, 48 h O2 ([10]; 10 mg/ml, 20 μl, 48 h, incubated aerobically): No zone | Zone diameters, Repeat Results ([10]; 10 mg/ml, 20 μl, repeat): 21 trim | zone of inhibition at 10000 µg/mL ([10]; ATCC9144|NCTC6571, 24 h, read-out: Zone diameters, 24 h AnO2): 18 mm | zone of inhibition at 10000 µg/mL ([10]; ATCC9144|NCTC6571, 24 h, read-out: Zone diameters, 24 h O2): 14 mm | zone of inhibition at 10000 µg/mL ([10]; ATCC9144|NCTC6571, 48 h, read-out: Zone diameters, 48 h AnO2): 18 mm | Zone diameters, 24 h TSB007 ([11]; 24 h): 10 trim | Zone diameters, 48 h TSB007 ([11]; 48 h): 9 trim | Zone diameters, Repeat Results ([11]; repeat): 9 trim | Zone diameters, Repeat Results [12]: 8.5 trim | Zone diameters, 24 h TSB007 ([13]; 24 h): 10 trim | Zone diameters, 48 h TSB007 ([13]; 48 h): 10 trim | Zone diameters, 24 h TSB007 ([14]; 24 h, Mueller Hinton + Blood & Incubated in 5% CO2): 14 trim | Zone diameters, 48 h TSB007 ([14]; 48 h, Mueller Hinton + Blood & Incubated in 5% CO2): 14 trim | Zone diameters, Repeat Results ([14]; repeat): 17 trim | Ames Test result ([15]; 100, 300 and 1000 μg/plate, TA98, TA100, TA1535, no metabolic activation): negative | Number of colonies ([15]; TA98, 100 μg/plate, negative control 14, 12): 16 and 13 | Number of colonies ([15]; TA98, 300 μg/plate, negative control 14, 12): 11 | Number of colonies ([15]; TA98, 1000 μg/plate, negative control 14, 12): 3 and 2 | Number of colonies ([15]; TA100, 100 μg/plate, negative control 113, 96): 111 and 92 | Number of colonies ([15]; TA100, 300 μg/plate, negative control 113, 96): 110 and 105 | Number of colonies ([15]; TA100, 1000 μg/plate, negative control 113, 96): 88 and 89 | Number of colonies ([15]; TA1535, 100 μg/plate, negative control 28, 29): 17 and 29 | Number of colonies ([15]; TA1535, 300 μg/plate, negative control 28, 29): 16 and 24 | Number of colonies ([15]; TA1535, 1000 μg/plate, negative control 28, 29): 0
